Read-outs that look alike come from different tables or passages of the source.
Legend:
[1] = Pharmacokinetic analysis in mice; assay type: in vivo, C57BL/6 mice
Description: The pharmacokinetic properties of SS-1-64 are summarized in the following table along with a comparator RIPK2/NOD inhibitor CSLP37, N-(5-(2-Amino-5-(4-(piperazin-1-yl)phenyl)pyridin-3-yl)-3-fluoro-2-methoxyphenyl)propane-1-sulfonamide (U.S. Pat. No. 11,135,298 to Cuny et al.).

[2] = system: HEK-Blue cells expressing human NOD2; assay: NOD2 signaling assay #1 (HEK-Blue NFkB-SEAP reporter, L18-MDP stimulated); assay type: cell-based; details: 1 ng/ml L18-MDP, read-out: IC50 (nM) HEKBlue
Method: HEK-Blue cells expressing human NOD2 and NFkB-SAEP reporter (Invivogen) are seeded into 96 well clear plates at 7.5×10^3 cells per well in 100 μL of DMEM media supplemented with 10% FBS and 1% antibiotic-antimycotic mix. Cells are allowed to attach for 48 h in 5% CO2 tissue culture incubator at 37° C. On the morning of the experiment, media in the wells is replaced with 100 μL of HEK-Blue detection media (Invivogen). Cells are treated with the inhibitors, diluted in DMSO (0.5 μL per well) for 15 min in 5% CO2 tissue culture incubator at 37° C. After that, cells are stimulated by the addition of 1 ng/ml L18-MDP (Invivogen). Cells are incubated in 5% CO2 tissue culture incubator at 37° C. for 8 h and absorbance, corresponding to the SEAP in the media, is determined in Wallac3V plate reader (Perkin Elmer). Inhibition, %=(1−((sample signal-unstimulated and DMSO treated cells)/(L18-MDP stimulated and DMSO treated cells−unstimulated and DMSO treated cells)))*100. IC50 values are calculated based on a dose range of inhibitor concentrations using non-linear regression in GraphPad Prism software.

[3] = molecular target: Recombinant RIPK2 protein (Homo sapiens, UniProt O43353); assay: RIPK2 enzyme assay (ADP-Glo); assay type: biochemical; details: NI: no inhibition observed
Chain of Recombinant RIPK2 protein (O43353 whole entry, species assumed): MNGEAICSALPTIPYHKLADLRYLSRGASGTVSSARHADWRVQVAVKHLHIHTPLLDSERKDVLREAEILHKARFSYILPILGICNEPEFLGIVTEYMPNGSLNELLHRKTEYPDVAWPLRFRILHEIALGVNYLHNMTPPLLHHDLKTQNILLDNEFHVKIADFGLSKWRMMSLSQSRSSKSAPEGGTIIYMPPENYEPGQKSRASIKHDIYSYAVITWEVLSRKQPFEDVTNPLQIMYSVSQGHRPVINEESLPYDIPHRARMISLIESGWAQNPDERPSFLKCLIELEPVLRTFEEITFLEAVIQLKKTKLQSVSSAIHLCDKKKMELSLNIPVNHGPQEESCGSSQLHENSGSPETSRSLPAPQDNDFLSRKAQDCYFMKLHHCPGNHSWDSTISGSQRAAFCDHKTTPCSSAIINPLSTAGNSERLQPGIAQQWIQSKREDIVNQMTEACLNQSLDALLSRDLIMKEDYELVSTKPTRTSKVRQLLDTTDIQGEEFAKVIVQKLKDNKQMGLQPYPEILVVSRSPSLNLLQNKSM
Method: Recombinant RIPK2 protein (20 ng per reaction) is diluted in the reaction buffer consisting of 40 mM Tris (pH 7.5); 20 mM MgCl2; 0.1 mg/ml BSA; 50 μM DTT. Diluted protein is added to low volume white 384 well plates (2 μL/well). Inhibitors are diluted in reaction buffer (final 25% DMSO), 1 μL is added to each well and incubated 5 min at room temperature. Reactions are initiated by the addition of 2 μL of 100 μM ATP and 1 mg/ml RS repeat peptide (SignalChem) in the reaction buffer. Plates are sealed with plastic coverslips and incubated at room temperature for 2 h. Reactions are stopped by the addition of 5 μL of ADP-Glo reagent (Promega) and ADP generation reaction is performed for 40 min at room temperature. Luminescence signal is generated by the addition of 10 μL of Kinase detection reagent (Promega) for 30 min at room temperature. Luminescence signals are determined using appropriate luminescence plate-reader (typical integration time 0.3-1 sec). To calculate percent inhibition, average background signal is subtracted from test well and maximal signal wells. Inhibition, %=(1−(test signal/maximal signal))*100. The percent inhibition at a specified concentration is determined or IC50 values are calculated based on a dose range of inhibitor concentrations using non-linear regression in GraphPad Prism software.

[4] = system: NOD2 cellular signaling in THP1 cells; assay: NOD2 signaling assay #2 (THP1 NFkB-SEAP reporter, L18-MDP stimulated); assay type: cell-based; details: Homo sapiens, THP-1, 10 ng/ml L18-MDP
Method: THP1 cells expressing NFkB-SAEP reporter (Invivogen) are seeded into 96 well clear plates at 5×10^4 cells per well in 100 μL of RPM11640 media supplemented with 10% FBS and 1% antibiotic-antimycotic mix. Cells are treated with the inhibitors, diluted in DMSO ([…] per well) for 15 min in 5% CO2 tissue culture incubator at 37° C. After that, cells are stimulated by the addition of 10 ng/ml L18-MDP (Invivogen). Cells are incubated in 5% CO2 tissue culture incubator at 37° C. for 8 h and absorbance, corresponding to the SEAP in the media, is determined in Wallac3V plate reader (Perkin Elmer). Inhibition, %=(1−((sample signal-unstimulated and DMSO treated cells)/(L18-MDP stimulated and DMSO treated cells−unstimulated and DMSO treated cells)))*100. IC50 values are calculated based on a dose range of inhibitor concentrations using non-linear regression in GraphPad Prism software.

[5] = female, C57BL/6, mouse, in vivo, ip, 10 mg/kg
[6] = single dose 10 mg/kg intraperitoneally, female C57BL/6 mice

Row | SMILES | IC50 [2] | IC50 [3] | IC50 [4] | further results
1 | CCCS(=O)(=O)Nc1cc(-c2cc(-c3ccc(N4CCNCC4)cc3)cnc2N)cc(F)c1OC [CSLP37, N-(5-(2-Amino-5-(4-(piperazin-1-yl)phenyl)pyridin-3-yl)-3-fluoro-2-methoxyphenyl)propane-1-sulfonamide, reference compound] |  |  |  | Cl (clearance) [1, 5]: 59.66 ± 15.09 mL/min/kg; Cmax [1, 5]: 550 ± 200 nM; Tmax [1, 5]: 1.2 ± 0.4472 h; V (volume of distribution) [1, 5]: 24.04 ± 6.15 L/kg; t1/2 (plasma elimination half-life) [1, 5]: 4.66 ± 0.24 h; AUC ([1]; mouse, in vivo, ip, 10 mg/kg): 2920 ng·h/mL
2 | CCCS(=O)(=O)Nc1cc(-c2cc(Br)cnc2N)cc(F)c1OC [SS-1-5, N-(5-(2-amino-5-bromopyridin-3-yl)-3-fluoro-2-methoxyphenyl)propane-1-sulfonamide] | 57 nM |  |  | 
3 | CCCS(=O)(=O)Nc1cc(-c2cc(-c3ccc(N4CCNCC4)cc3)cnc2NC)cc(F)c1OC [SS-1-10, N-(3-fluoro-2-methoxy-5-(2-(methylamino)-5-(4-(piperazin-1-yl)phenyl)pyridin-3-yl)phenyl)propane-1-sulfonamide] | 16 nM |  |  | 
4 | CCCS(=O)(=O)Nc1cc(-c2cc(-c3ccc(C4CCNCC4)cc3)cnc2N)cc(F)c1OC [SS-1-14, N-(5-(2-amino-5-(4-(piperidin-4-yl)phenyl)pyridin-3-yl)-3-fluoro-2-methoxyphenyl)propane-1-sulfonamide] | 0.06 nM | 11 nM |  | 
5 | CCCS(=O)(=O)Nc1cc(-c2cc(-c3ccc(N4CCN(C)CC4)cc3)cnc2N)cc(F)c1OC [SS-1-18, N-(5-(2-amino-5-(4-(4-methylpiperazin-1-yl)phenyl)pyridin-3-yl)-3-fluoro-2-methoxyphenyl)propane-1-sulfonamide] | 0.03 nM | 10 nM |  | 
6 | COc1c(F)cc(-c2cc(-c3ccc(N4CCNCC4)cc3)cnc2N)cc1NS(C)(=O)=O [SS-1-33, N-(5-(2-amino-5-(4-(piperazin-1-yl)phenyl)pyridin-3-yl)-3-fluoro-2-methoxyphenyl)methanesulfonamide] | 0.17 nM | 29 nM |  | 
7 | CCCS(=O)(=O)Nc1cc(-c2cc(-c3ccc(C4CCN(C)CC4)cc3)cnc2N)cc(F)c1OC [SS-1-38, N-(5-(2-amino-5-(4-(1-methylpiperidin-4-yl)phenyl)pyridin-3-yl)-3-fluoro-2-methoxyphenyl)propane-1-sulfonamide] | 0.07 nM | 31 nM |  | 
8 | CCCS(=O)(=O)N(C)c1cc(-c2cc(-c3ccc(N4CCNCC4)cc3)cnc2N)cc(F)c1OC [SS-1-39, N-(5-(2-amino-5-(4-(piperazin-1-yl)phenyl)pyridin-3-yl)-3-fluoro-2-methoxyphenyl)-N-methylpropane-1-sulfonamide] | 1.2 nM | 137 nM |  | 
9 | COc1c(F)cc(-c2cc(-c3ccc(C4CCN(C)CC4)cc3)cnc2N)cc1NS(C)(=O)=O [SS-1-43, N-(5-(2-amino-5-(4-(1-methylpiperidin-4-yl)phenyl)pyridin-3-yl)-3-fluoro-2-methoxyphenyl)methanesulfonamide] |  |  | 0.1 nM | 
10 | COc1c(F)cc(-c2cc(-c3ccc(C4CCN(C)CC4)cc3)cnc2N)cc1N(C)S(C)(=O)=O [SS-1-50, N-(5-(2-amino-5-(4-(1-methylpiperidin-4-yl)phenyl)pyridin-3-yl)-3-fluoro-2-methoxyphenyl)-N-methylmethanesulfonamide] |  |  | 1.2 nM | 
11 | COc1cc(-c2cc(-c3ccc(C4CCN(C)CC4)cc3)cnc2N)cc(NS(C)(=O)=O)c1OC [SS-1-64, N-(5-(2-amino-5-(4-(1-methylpiperidin-4-yl)phenyl)pyridin-3-yl)-2,3-dimethoxyphenyl)methanesulfonamide] |  |  | 0.014 nM | Cmax ([1]; mouse, in vivo, ip, single dose 10 mg/kg intraperitoneally, 6% Captisol in water, female C57BL/6 mice, read-out: maximum plasma concentration (Cmax)): 1630 ± 1200 nM; Tmax ([1]; mouse, in vivo, ip, single dose 10 mg/kg intraperitoneally, female C57BL/6 mice, read-out: Tmax): 1 h; half-life ([1]; mouse, in vivo, ip, single dose 10 mg/kg intraperitoneally, female C57BL/6 mice, read-out: t1/2 (plasma elimination half-life) (converted)): 7.88 ± 0.28 h; Cl (clearance) [1, 6]: 53.56 ± 5.68 mL/min/kg; V (volume of distribution) [1, 6]: 36.45 ± 2.61 L/kg; Tmax ([1]; single dose 10 mg/kg intraperitoneally, female C57BL/6 mice, plasma): 1 ± 0 h
12 | CCCS(=O)(=O)Nc1cc(-c2cc(C#CCN3CCN(C)CC3)cnc2N)cc(F)c1OC [SS-1-66, N-(5-(2-amino-5-(3-(4-methylpiperazin-1-yl)prop-1-yn-1-yl)pyridin-3-yl)-3-fluoro-2-methoxyphenyl)propane-1-sulfonamide] |  |  | 20 nM | 
13 | COc1cc(-c2cc(-c3ccc(C4CCN(C)CC4)cc3)cnc2N)cc(NC(C)=O)c1OC [SS-2-41, N-(5-(2-amino-5-(4-(1-methylpiperidin-4-yl)phenyl)pyridin-3-yl)-2,3-dimethoxyphenyl)acetamide] |  |  | 0.1 nM | 
